“And” between values parts separate entries of the source, which are not always exact repeats. Equal values may be shown once. Read-outs that look alike come from different tables or passages of the source.
Columns and labels:
[1] = cited from earlier work
[2] = Variable-temperature 17O NMR transverse relaxation (water exchange); type: physicochemical; settings: for τm: fitting parameter, 17O transverse relaxivity study
Protocol: Further investigation into the transverse relaxivity changes against temperature as shown in FIG. 6 was performed to determine the exchange rate. The maximum appears at a lower temperature, which implies a faster water exchange rate. The water exchange rates of the discussed ligands are in the order of Gd-BOPTA (kex=5.0×10^6)>Gd-DTPA (kex=4.0×10^6)>Gd-DOTA (kex=3.3×10^6)>GdL (kex=1.1×10^6). As anionic complexes promote water exchange, the first three complexes are anionic species with faster water exchange rates. GdL is neutral with a lower exchange rate, but with a lower osmolality, and importantly, the highest relaxivity.
Variable-temperature ^17O NMR measurements were recorded on a JEOL EX-90 (2.1 T) spectrometer that was equipped with a 5 mm probe, using D2O for external lock of the magnetic field. Experimental settings were spectral width 10000 Hz, pulse width 7 μs, acquisition time 10 ms, 1000 scans, and no sample spinning. The solution used contained ^17O enriched water (2.6%, Yeda, Israel). The observed transverse relaxation rate (R^O2obs) was calculated from the line width of the resonance at half height (Δν1/2): R^O2obs=πΔν1/2.

[3] = NMRD profile / relaxometric measurements (1H longitudinal relaxivity, incl. temperature and pH dependence); type: physicochemical; settings: for R1p: 20 MHz and 25° C.; for relaxivity (NMRD profile): 20 MHz, 7.2 pH and 25° C.; for rGdH / Δ^2 / τr / τv: fitting parameter, NMRD profile
Excerpt: Relaxivity is used to describe the efficiency of a paramagnetic substance in increasing the water longitudinal relaxation rate. NMRD profiling is a direct method of measuring the proton relaxivity, and in principle it is sensitive to all of the parameters that influence relaxivity. It is the nuclear relaxation rate (1/T1) as a function of the Larmor frequency or the magnetic field, and describes the excess longitudinal proton relaxation that is caused by the presence of contrast agents as a function of the magnetic field using a field-cycling technique. The NMRD profile can probe the relaxivity mechanisms and understand how changes in the chemical structure of the complex interfere with them. The change in experimental parameters such as temperature and pressure influences the physical or chemical state of the sample, but the variation of the magnetic field has no influence on the chemistry of the sample. Thus, NMRD is a useful technique in the understanding of the numerous physiochemical parameters that determine the field dependence of proton relaxivities. The innersphere, outersphere, and second sphere contribute to the overall relaxivity and are influenced by numerous parameters, which are too complex to be well-defined by a single NMRD study; usually, reference to independent ^17O NMR relaxation rates and chemical shift is made. By the equations 2-7, several parameters that are related to the outersphere, and innersphere relaxation, such as the hydration number q, the τm, τR, τv, Δ^2, and rGdH, can be estimated.
As shown in FIGS. 5-8, all complexes have one innersphere water molecule. At low field, the electronic relaxation dominates the dipole-dipole correlation time for innersphere relaxivity and results in the first dispersion at around a […] proton Larmor frequency, while at high field, rotation relaxation dominates and the dispersion is at around 30 MHz. The higher relaxivity as compared to the clinical agents is postulated to the longer reorientational correlation time τR and the shorter rGdH. Relaxivity has a dependence on the τR at 20 MHz, which is determined by the molecular dimension.
The temperature and pH dependence of the longitudinal relaxivity were measured to study the tolerance of the complex under different physiological conditions (see FIGS. 9-10). At the low temperature under the slow exchange rate (τm>>T1M) a relatively longer τm is insignificant. The innersphere quenching is not severed and is not dominated by the outersphere mechanism at 273-278 K. Beyond 278 K the innersphere contribution increases up to 288 K. This is the τm≈T1M region, where the onset of the innersphere and the slow water exchange is not interfered with. From 288 K to 330 K, there is a gradual drop in the relaxivity due to the increase in D and T1M which causes both the innersphere and outersphere relaxivities to fall under the fast exchange condition (τm<<T1M). The relaxivity is 4.93 mM^−1s^−1at physiological temperature. […] The structural arrangement around the metal centre is not severely distorted, which allows a high stability against different pH.
NMRD profiles measure the longitudinal water proton relaxation rate as a function of magnetic fields. Measurements were performed by a Spinmaster FFC fast field cycling NMR relaxometer that covered a continuum of magnetic fields from 0.00024 to 0.47 T. The temperature was controlled by circulating Freon from an external bath and measured by a thermometer that was inserted into the Freon close to the sample. The relaxometer worked under complete control with the reproducibility of the measured T1 values estimated to be ±2%. The NMRD profiles were acquired for a 1-2 mM solution of the complex. Xylenol orange test was employed to check the absence of free Gd(III).

[4] = versus 0.29 osmol kg^−1 of body fluid; cited from earlier work
liver [5] = settings: 0.1 mmol kg^−1 dose, intravenous bolus; cited from earlier work
liver [6] = settings: Schima et al., J. Magn. Res. Imaging 1999; cited from earlier work
hepatocytes [7] = settings: cited from earlier work
hepatocytes [8] = settings: cited from earlier work; remark: listed apart in the source
[9] = test system: non-tumorigenic immortalized liver cell line (MIHA); assay: Hepatocellular uptake (ICP-MS of Gd per cell); type: cell-based
Protocol: The non-tumorigenic immortalized liver cell line (MIHA) was grown and incubated in different concentrations of GdL and Gd-BOPTA. The mole of gadolinium uptake per cell under different concentrations of GdL incubation is presented as a function of concentration in FIG. 16. […] The average increase is 7.2×10^−13 mole of Gd per cell (about 1.97 times more than Gd-BOPTA) and the maximum uptake is 3.1×10^−12 mol of Gd per cell at 5 mM. There was no gadolinium ion found in the control experiments in the absence of GdL. The uptake varied slightly at the incubation concentration of less than 0.5 mM and linearly when the concentration increases from 0.5 to 5 mM. […]
The non-tumorigenic immortalized liver cell line (MIHA) (kindly provided by Dr J. R. Chowdhury at the Albert Einstein College of Medicine, New York) was grown in a 96-well plate (polystyrene, flat bottom tissue-culture treated, black with clear bottom) with Dulbecco's modified Eagle's medium (DMEM with 4 mM L-glutamine modified to contain 4.5 g l^−1 glucose and 1.5 g l^−1 sodium bicarbonate) containing 10% Bovine Calf Serum (BCS) in a 5% carbon dioxide incubator. […] The cells were exposed to 100 μl of 0.25% trypsin and harvested, then counted by hemacytometer. […] The samples were analyzed by Agilent 7500a ICP-MS with ICP-MS Top installed.

rats = settings: cited from earlier work
[10] = 20 MHz, temperature in parentheses: 40

SMILES | Relaxivity [1, 10] | water exchange rate kex [2] | τm [2] | R1p [3] | rGdH [3] | Δ^2 [3] | τr [3] | τv [3] | Relaxivity ([1]; 20 MHz and 25° C.) | also measured
O=C([O-])CN1CCN(CC(=O)[O-])CCN([C@H](CO)[C@H](O)CO)CCN(CC(=O)[O-])CC1.[Gd+3] (racemic) [Gd-DO3A-butrol, gadobutrol] | 3.60 (40) mM^−1 s^−1 | – | – | – | – | – | – | – | – | –
CNC[C@H](O)[C@@H](O)[C@H](O)[C@H](O)CO.O=C([O-])CN1CCN(CC(=O)[O-])CCN(CC(=O)O)CCN(CC(=O)[O-])CC1.[Gd+3] [Gd-DOTA, gadoterate meglumine] | – | 3.3×10^6 | 300 ns | 4.73 mM⁻¹ s⁻¹ | 3.10 Å | 1.3 E19 s^−1 | 73 ps | 7.7 ps | 4.73 mM⁻¹ s⁻¹ | relaxivity (NMRD profile) [3]: 4.73 mM⁻¹ s⁻¹
CC(O)CN1CCN(CC(=O)[O-])CCN(CC(=O)[O-])CCN(CC(=O)[O-])CC1.[Gd+3] (stereo not shown) [Gd-HP-DO3A, gadoteridol] | 3.70 (40) mM^−1 s^−1 | – | – | – | – | – | – | – | – | –
CNC[C@H](O)[C@@H](O)[C@H](O)[C@H](O)CO.CNC[C@H](O)[C@@H](O)[C@H](O)[C@H](O)CO.O=C([O-])CN(CCN(CC(=O)[O-])CC(=O)O)CCN(CC(=O)[O-])CC(=O)O.[Gd+3] [Gd-DTPA, gadopentetate dimeglumine] | – | 4.0×10^6 | 250 ns | 4.69 mM⁻¹ s⁻¹ | 3.10 Å | 4.2 E19 s^−1 | 73 ps | 20 ps | 4.69 mM⁻¹ s⁻¹ | osmolality [4]: 1.96 osmol kg^−1; tolerance (liver [5]): good tolerance
CNC[C@H](O)[C@@H](O)[C@H](O)[C@H](O)CO.CNC[C@H](O)[C@@H](O)[C@H](O)[C@H](O)CO.O=C([O-])CN(CCN(CC(=O)[O-])CC(=O)O)CCN(CC(=O)O)C(COCc1ccccc1)C(=O)[O-].[Gd+3] (stereo not shown) [Gd-BOPTA, gadobenate dimeglumine] | – | 5.0×10^6 | 200 ns | 5.20 mM⁻¹ s⁻¹ | 2.96 Å | 4.2 E19 s^−1 | 88 ps | 26 ps | 5.2 mM⁻¹ s⁻¹ and 5.20 mM⁻¹ s⁻¹ | hepatic intensity enhancement (liver [6]): 55%; hepatocellular uptake (hepatocytes [7]; rats): 38.6%; relaxivity (NMRD profile) [3]: 5.20 mM⁻¹ s⁻¹; percentage of contrast agent excreted (hepatocytes [8]; humans, intravenous injection): over 95%; hepatic (hepatocellular) uptake (hepatocytes [8]; humans): 3-5 % of the injected dose; dose dependence of uptake [9]: not significant
CNC(=O)CN(CCN(CCN(CC(=O)[O-])CC(=O)NC)CC(=O)[O-])CC(=O)[O-].[Gd+3] [Gd-BMA, gadodiamide] | – | – | – | – | – | – | – | – | 4.39 mM⁻¹ s⁻¹ | –
[Gd+3] [Gd(III) aqua ion] | – | – | – | – | – | – | – | – | – | LD50 (rats): 0.1 to 0.2 mmol/kg
COCCNC(=O)CN(CCN(CCN(CC(=O)[O-])CC(=O)NCCOC)CC(=O)[O-])CC(=O)[O-].[Gd+3] [Gd-BMEA, gadoversetamide] | 4.70 (40) mM^−1 s^−1 | – | – | – | – | – | – | – | – | –
CCOc1ccc(C[C@@H](CN(CCN(CC(=O)[O-])CC(=O)[O-])CC(=O)[O-])N(CC(=O)[O-])CC(=O)[O-])cc1.[Gd+3].[Na+].[Na+] [Gd-EOB-DTPA] | – | – | – | – | – | – | – | – | – | hepatocellular uptake (hepatocytes [7]; rat, in vivo): 70%; hepatic (hepatocellular) uptake (hepatocytes [8]; in vivo): 50 % of the injected dose

— US7767196B2, “Optimized relaxivity and specificity hepatobiliary MRI contrast agent” (priority 2005, dated 2010)
